This assay concerns the target T1, N-formyl peptide receptor 2 (Homo sapiens, UniProt P25090).
T1 sequence (P25090 whole entry): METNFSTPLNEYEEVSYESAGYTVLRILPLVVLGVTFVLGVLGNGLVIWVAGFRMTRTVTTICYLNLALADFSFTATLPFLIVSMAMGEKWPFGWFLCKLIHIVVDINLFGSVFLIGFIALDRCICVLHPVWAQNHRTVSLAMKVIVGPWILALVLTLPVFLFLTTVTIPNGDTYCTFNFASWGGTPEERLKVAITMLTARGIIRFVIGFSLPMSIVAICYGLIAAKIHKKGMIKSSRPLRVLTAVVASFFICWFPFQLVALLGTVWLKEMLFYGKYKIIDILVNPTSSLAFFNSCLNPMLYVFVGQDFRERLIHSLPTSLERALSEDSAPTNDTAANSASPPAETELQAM
Briefly: Agonist activity at human FPR2 receptor expressed in CHO cells assessed as forskolin/IBMX-induced intracellular cAMP level incubated for 30 mins by HTRF HiRange cAMP assay. In kind it is functional, cell-based. A general note: Cyclic AMP is a second messenger, typically raised through Gs and lowered through Gi signalling.
Broadly, the EC50 is the concentration that produces a half-maximal response. In the case of `CN(C)[C@@H]1CCN(c2ccc(N3CC[C@@H](NC(=O)Nc4ccc(C(F)(F)F)cc4)C3=O)c(F)c2F)C1`, the EC50 was determined as 0.21 nM.

On to `O=C(Nc1ccc(Cl)cc1F)NC1CCN(c2c(F)cc(N3CCCS3(=O)=O)cc2F)C1=O` (stereo unspecified), for which the EC50 worked out at 4.4 nM.

As for `CN(CCO)[C@@H]1CCN(c2ccc(N3CCC(NC(=O)Nc4ccc(Cl)cc4)C3=O)c(F)c2F)C1` (stereo partly specified), the EC50 is 0.27 nM.

For `CN(C)[C@@H]1CCN(c2ccc(N3CC[C@@H](NC(=O)Nc4ccc(Cl)cc4)C3=O)c(F)c2F)C1`, the EC50 is 0.19 nM.

With `O=C(Nc1ccc(C(F)(F)F)cc1F)NC1CCN(c2c(F)cc(N3CCCS3(=O)=O)cc2F)C1=O` (stereo unspecified), the EC50 was 7.2 nM.

For the molecule `CN[C@@H]1CCN(c2ccc(N3CCC(NC(=O)Nc4ccc(Cl)cc4)C3=O)c(F)c2F)C1` (stereo partly specified), the EC50 worked out at 5.6 nM.

The values are drawn from ChEMBL document CHEMBL6134925, “Novel Pyrrolidinone Urea as FPR2 Agonists for Treating Atherosclerosis and Heart Failure” (ACS Med Chem Lett, 2025).
